Reference: US20260097022A1, “COMPOUNDS AND USES THEREOF” (Integrated Biosciences, Inc., priority 2023, published 2026)

Experiments:
[1] = system: etoposide-treated IMR-90 cells; experiment: Etoposide-induced senescence model, resazurin cell viability (screen and dose-response); assay type: cell-based, human; conditions: for effect on Sncs and control cells versus DMSO: concentrations between 1.5 to 3 μM, 3 days
In short: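 IMR-90 fibroblasts made senescent with 50 μM etoposide for 2 days, then 4 days recovery before plating. Compounds at 10 μM or 1 μM final (screen) or three-fold dilutions (1% DMSO) for 3 days, then 0.15 mM resazurin 1 day, fluorescence 550/590 nm. Viability expressed as fraction of untreated controls; biological duplicates.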

[2] = system: Salmonella typhimurium TA100; experiment: Genotoxicity assay (Ames 384-ISO test); assay type: cell-based; conditions: 100 μM
Experimental: Genotoxicity assay. An Ames 384-ISO test (6041-1S) from Environmental Bio-Detection Products, Inc, was used following the manufacturer's instructions. Briefly. Salmonella typhimurium TA100 was grown overnight (16-18 h) at 37° C., with shaking at 300 rpm and treated with the provided exposure media and compound samples at the final concentrations indicated. Treatment with the provided 4-nitroquinoline 1-oxide (4NQO), a mutagen, was used as a positive control. Cells were then added to the provided reversion solution, and each sample was split into 48 wells of 384-well plates. Plates were incubated at 37° C., for 2 days, after which the number of revertant (yellow-colored) wells corresponding to each sample was counted. […] An overnight bacterial culture was diluted 1:10.000 in LB medium (Becton Dickinson 244620) and plated using 99 μL working volumes into the wells of a clear flat-bottom 96-well plate. One μL of two-fold dilutions of each test compound in DMSO, starting from a final concentration of 500 μM, was added across wells, and plates were sealed and incubated overnight at 37° C., to determine bacterial growth.

human red blood cells = experiment: Hemolysis assay; assay type: cell-based; conditions: up to a final concentration of 100 μM; 1 h at 37° C.
Experimental: Hemolysis assay. Whole human blood containing EDTA (Innovative Resarch IWB1K2E) was centrifuged at 120×g at 4° C., for 5 min and resuspended in Dulbecco's PBS (DPBS: VWR 02-0119-0500). These washing steps were repeated until the supernatant was clear. Red blood cells were then resuspended in DPBS to 5×10^8 cells/mL, and 100 μL of cells was plated into each well of a 96-well clear round-bottom plate. Compounds were added to the indicated concentrations, and DMSO was used as a vehicle. Samples were incubated for 1 h at 37° C., without shaking, after which plates were centrifuged at 1500×g at room temperature for 5 min to pellet cells. 60 μL of the supernatant from each sample was then transferred to a 96-well clear flat-bottom plate, and the absorbance was read at 405 nm using a SpectraMax M3 plate reader to quantify the amount of soluble hemoglobin. Fractional hemolysis was determined by linearly interpolating absorbance values with respect to a positive control (saturation with 10% Triton X-100) and a negative control (1% DMSO vehicle). Results are depicted in FIG. 14.

HepG2 cells = experiment: Cytotoxicity against HepG2 cells (resazurin); assay type: cell-based, human; conditions: 3 days treatment, curve-fitting, two biological replicates
Experimental: Measuring cytotoxicity against HepG2 and HEK293 cells. Cytotoxicity in human embryonic kidney (HEK293) and liver carcinoma (HepG2) cells was assayed as above using a resazurin assay. Cells were obtained from ATCC (ATCC CRL-1573 and HB-8065), passaged <10 times, and grown in Dulbecco's modification of Eagle's Medium (DMEM: Corning 10^−013-CV) supplemented with 10% FBS and 1% penicillin-streptomycin. 99 μL of cells were plated into each well of a 96-well clear flat-bottom, black polystyrene tissue-culture-treated plate at a density of ˜10+ cells/well, and plates were incubated overnight for adhesion. The day after plating. 1 μL of each compound, prepared as two-fold serial dilutions of 5 mM stock solutions in DMSO, was added to each well. Cells were incubated for 3 days, after which resazurin was added to each well to a final concentration of 0.15 mM. After an additional 1 day of incubation, the fluorescence excitation/emission at 550/590 nm was read using a SpectraMax M3 plate reader. Experiments were performed in biological duplicate. IC50 values were determined by normalizing with respect to the fluorescence intensity values of untreated control cells on day 3, as described in Calculation of cellular viability values in dose-response curves above.

[3] = ratio of IC50 values for vehicle- and etoposide-treated IMR-90 cells, 3 days treatment

SMILES | effect on Sncs and control cells versus DMSO [1] | Therapeutic Index (TI) [1, 3] | reversion of bacterial cultures (mutagenic potential) [2] | hemolysis (human red blood cells) | IC50 (HepG2 cells) | IC50 (HepG2 cells; Homo sapiens, HepG2, 72 h) | Therapeutic Index (TI) ([1]; etoposide-induced senescence model, ratio of IC50 values between etoposide- and DMSO-treated IMR-90 fibroblasts)
O=C(Nc1ccc(S(=O)(=O)Nc2ncccn2)cc1)c1ccc(-c2ccccc2)cc1 [BRD-K20733377] | selective elimination of Sncs and no difference in the viabilities of control cells | 8.3 | did not induce significant reversion | did not induce significant hemolysis | 70.3 µM | – | –
COc1ccc(C(=O)Nc2ccc3nc(SCC(=O)Nc4ccccc4F)sc3c2)cc1OC [compound 6] | selective elimination of Sncs and no difference in the viabilities of control cells | – | did not induce significant reversion | did not induce significant hemolysis | – | 421 µM | –
Cc1ccccc1C(=O)Nc1ccc2nc(SCC(=O)Nc3ccccc3)sc2c1 [compound 19] | selective elimination of Sncs and no difference in the viabilities of control cells | 4.7 | did not induce significant reversion | did not induce significant hemolysis | – | 383 µM | +++ (compounds with a TI of >5 were labeled as +++)
